The source of these data is patent US20230027929A1, “MrgprX2 Antagonists and Uses Thereof” (Dermira, Inc., priority 2019, published 2023).

SMILES strings stand for the structures.

The target of this test is T1, hMrgpMRGPRX2 (Homo sapiens, UniProt Q96LB1).
T1 construct: expressed in transfected cells
T1 sequence (Q96LB1 1-330): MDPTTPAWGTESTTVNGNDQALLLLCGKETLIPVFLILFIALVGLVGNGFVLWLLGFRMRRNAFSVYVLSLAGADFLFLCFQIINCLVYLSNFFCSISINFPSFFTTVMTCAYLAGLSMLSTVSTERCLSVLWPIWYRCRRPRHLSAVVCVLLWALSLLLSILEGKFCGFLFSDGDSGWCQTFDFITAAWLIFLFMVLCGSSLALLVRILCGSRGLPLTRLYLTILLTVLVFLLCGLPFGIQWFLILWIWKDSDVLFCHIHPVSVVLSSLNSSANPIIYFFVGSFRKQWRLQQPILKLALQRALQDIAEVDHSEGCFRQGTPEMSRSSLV
The experiment in a line: FLIPR intracellular calcium mobilization, antagonist activity in recombinant hMrgpMRGPRX2 expressing cells. The note with it: read-out: Human MrgprX2 Antagonist pIC50 (converted). It counts as cell-based. The text has this: Potent and selective hMrgpMRGPRX2 compounds have been generated from compounds identified during a high throughput screening (HTS) campaign and followed up with cycles of structure activity based medicinal chemistry efforts. These compounds were characterized in recombinant hMrgpMRGPRX2 expressing cells for their antagonist activity and the potency was confirmed in the human mast cell line LAD-2, where the target is endogenously expressed. The assays used to determine potencies are functional read-out looking at intracellular calcium mobilization using the FLIPR™ technology. In these FLIPR assays, we test the identified compounds using recombinant cellular systems expressing mouse MrgprB2, mouse MrgprA1, gerbil MrgpMRGPRX2 orthologue, Chinese hamster MrgpMRGPRX2 orthologue and cynomolgus monkey MrgpMRGPRX2 orthologue, respectively for orthologue activity.
On the technique in general: Calcium assays in cells follow changes in intracellular calcium, usually with a dye or a luminescent sensor.
For the molecule `C[C@@H]1C[C@H]1C(=O)Nc1ccc(Oc2ccc(F)c(F)c2)cn1` (racemic) [Compound E048.1], the IC50 was 79.4 nM.

Take `CC1(C)C[C@H]1C(=O)Nc1ccc(Oc2ccc(F)c(F)c2)cn1` (single isomer, unassigned) [Compound E078]: the IC50 was 7.94 nM.

Take `CC1(C)CC1C(=O)Nc1cnc(-c2cc(F)cc(F)c2)cn1` (single isomer, unassigned) [Compound E231, N-[5-(3,5-difluorophenyl)pyrazin-2-yl]-2,2-dimethyl-cyclopropanecarboxamide]: the IC50 is 102 nM.

With `CCN(C[C@@H](O)C(F)(F)F)C(=O)Nc1ccc(Oc2ccc(F)cc2F)cn1` (single isomer, unassigned) [Compound E267], the IC50 is 28.2 nM.

Take `CC(C)(C#N)C(=O)Nc1ccc(Oc2cccc(F)c2)cn1` [Compound E001, 2-cyano-N-[5-(3-fluorophenoxy)-2-pyridyl]-2-methyl-propanamide]: the IC50 is 398 nM.

As for `CC(C)C(=O)Nc1ccc(Oc2ccccc2)cn1` [Compound E002], the IC50 is 501 nM.

For `CC(C)C(=O)Nc1ccc(Oc2ccc(F)cc2)cn1` [Compound E003], the IC50 was 316 nM.

With `CC(C)C(=O)Nc1ccc(Oc2cccc(F)c2)cn1` [Compound E004], the IC50 was 63.1 nM.

Regarding `CC(C)C(=O)Nc1ccc(Oc2ccccc2F)cn1` [Compound E005], the IC50 was 79.4 nM.

Regarding `CC1(C(=O)Nc2ccc(Oc3cccc(F)c3)cn2)CCOCC1` [Compound E006], the IC50 is 3160 nM.

Regarding `CC1(C(=O)Nc2ccc(Oc3ccccc3F)cn2)CCOCC1` [Compound E007], the IC50 is 2510 nM.

For the molecule `CC(C)C(=O)Nc1ccc(Oc2cc(F)cc(F)c2)cn1` [Compound E008], the IC50 was 6.31 nM.

With `CC(C)C(=O)Nc1ccc(Oc2cccc(F)c2F)cn1` [Compound E009], the IC50 is 79.4 nM.

Regarding `CC(C)C(=O)Nc1ccc(Oc2ccc(F)c(F)c2)cn1` [Compound E010], the IC50 was 39.8 nM.

For `CC1(C(=O)Nc2ccc(Oc3cccc(F)c3)cn2)CCOC1` (stereo not drawn) [Compound E011], the IC50 is 6310 nM.

For the molecule `O=C(Nc1ccc(Oc2cccc(F)c2)cn1)C1(C(F)(F)F)CC1` [Compound E012], the IC50 is 398 nM.

`CC(O)(C(=O)Nc1ccc(Oc2cccc(F)c2)cn1)C(F)(F)F` (stereo not drawn) [Compound E013]: the IC50 was 794 nM.

On to `CC(C)(CO)C(=O)Nc1ccc(Oc2cccc(F)c2)cn1` [Compound E014], for which the IC50 was 3980 nM.

Turning to `CC1(C(=O)Nc2ccc(Oc3cccc(Cl)c3)cn2)CCOCC1` [Compound E015], the IC50 was 25.1 nM.

For `CC(C)C(=O)Nc1ccc(Oc2cccc(Cl)c2)cn1` [Compound E016], the IC50 was 25.1 nM.

For the molecule `O=C(Nc1ccc(Oc2cc(F)cc(F)c2)cn1)C1CC1` [Compound E017], the IC50 is 79.4 nM.

Consider `CC(C)C(=O)Nc1ccc(Oc2cccc(C#N)c2)cn1` [Compound E018], for which the IC50 was 6310 nM.

Turning to `CC(C)C(=O)Nc1ccc(Oc2ccc(F)c(C#N)c2)cn1` [Compound E019], the IC50 was 7940 nM.

Take `N#Cc1cc(F)cc(Oc2ccc(NC(=O)C3CC3)nc2)c1` [Compound E020]: the IC50 was 10000 nM.

Consider `CC(C)C(=O)Nc1ccc(Oc2cc(F)cc(C#N)c2)cn1` [Compound E021], for which the IC50 was 1580 nM.

In the case of `CC(C)C(=O)Nc1ccc(Oc2ccnc(F)c2)cn1` [Compound E022], the IC50 is 10000 nM.

For `N#CC1(C(=O)Nc2ccc(Oc3cc(F)cc(F)c3)cn2)CC1` [Compound E023], the IC50 is 3160 nM.

For the molecule `O=C(Nc1ccc(Oc2ccc(F)c(F)c2)cn1)C1CCOCC1` [Compound E024], the IC50 was 2000 nM.

In the case of `CC1(C)C(C(=O)Nc2ccc(Oc3ccc(F)c(F)c3)cn2)C1(C)C` [Compound E025], the IC50 was 2.51 nM.

Turning to `CC(C)(C#N)C(=O)Nc1ccc(Oc2ccc(F)c(F)c2)cn1` [Compound E026], the IC50 is 2000 nM.

In the case of `CC1(C(=O)Nc2ccc(Oc3ccc(F)c(F)c3)cn2)CCOCC1` [Compound E027], the IC50 was 3160 nM.

Take `O=C(Nc1ccc(Oc2ccc(F)c(F)c2)cn1)C1CC1(F)F` (stereo not drawn) [Compound E028]: the IC50 was 200 nM.

In the case of `CC1(C)CC1C(=O)Nc1ccc(Oc2ccc(F)c(F)c2)cn1` (stereo not drawn) [Compound E029], the IC50 was 3.98 nM.

As for `O=C(CC1CCOCC1)Nc1ccc(Oc2ccc(F)c(F)c2)cn1` [Compound E030], the IC50 is 7940 nM.

In the case of `O=C(Nc1ccc(Oc2ccc(F)c(F)c2)cn1)C1CCCC1` [Compound E031], the IC50 is 63.1 nM.

For `CC1(C(=O)Nc2ccc(Oc3ccc(F)c(F)c3)cn2)CC1` [Compound E032], the IC50 was 200 nM.

For the molecule `CC(C)(C)C(=O)Nc1ccc(Oc2ccc(F)c(F)c2)cn1` [Compound E033], the IC50 was 79.4 nM.

`O=C(Nc1ccc(Oc2ccc(F)c(F)c2)cn1)C1CC1` [Compound E034]: the IC50 was 200 nM.

As to `CC(C)(F)C(=O)Nc1ccc(Oc2ccc(F)c(F)c2)cn1` [Compound E035], the IC50 is 398 nM.

`CC1(C(=O)Nc2ccc(Oc3ccc(F)c(F)c3)cn2)CCOC1` (stereo not drawn) [Compound E036]: the IC50 was 5010 nM.

As to `O=C(Nc1ccc(Oc2ccc(F)c(F)c2)cn1)C1CCOC1` (stereo not drawn) [Compound E037], the IC50 was 6310 nM.

On to `COC(C)(C)C(=O)Nc1ccc(Oc2ccc(F)c(F)c2)cn1` [Compound E038], for which the IC50 was 1000 nM.

Consider `CC(C)(CO)C(=O)Nc1ccc(Oc2ccc(F)c(F)c2)cn1` [Compound E039], for which the IC50 was 3980 nM.

As for `COCC(C)(C)C(=O)Nc1ccc(Oc2ccc(F)c(F)c2)cn1` [Compound E040], the IC50 is 501 nM.

Take `CC1(C)CC1C(=O)Nc1ccc(Oc2cc(F)cc(C#N)c2)cn1` (stereo not drawn) [Compound E041]: the IC50 is 158 nM.

`CC1(C)C(C(=O)Nc2ccc(Oc3cc(F)cc(C#N)c3)cn2)C1(C)C` [Compound E042]: the IC50 is 3.16 nM.

For the molecule `CC1(C)C[C@@H]1C(=O)Nc1ccc(Oc2ccc(F)c(F)c2)cn1` [Compound E043], the IC50 is 3.98 nM.

Consider `O=C(Nc1ccc(Oc2ccc(F)c(F)c2)cn1)C1CC12CC2` (stereo not drawn) [Compound E044], for which the IC50 was 12.6 nM.

`O=C(Nc1ccc(Oc2ccc(F)c(F)c2)cn1)[C@H]1C[C@H]1C(F)(F)F` [Compound E045]: the IC50 was 20 nM.

`O=C(CC1CC1)Nc1ccc(Oc2ccc(F)c(F)c2)cn1` [Compound E046]: the IC50 was 398 nM.

With `N#C[C@@H]1C[C@@H]1C(=O)Nc1ccc(Oc2ccc(F)c(F)c2)cn1` [Compound E047], the IC50 is 3160 nM.

With `C[C@@H]1C[C@@H]1C(=O)Nc1ccc(Oc2ccc(F)c(F)c2)cn1` [Compound E048], the IC50 is 15.8 nM.

On to `O=C(Nc1ccc(Oc2ccc(F)c(F)c2)cn1)[C@H]1C[C@@H]1C(F)(F)F` [Compound E049], for which the IC50 was 25.1 nM.

For `N#C[C@H]1C[C@@H]1C(=O)Nc1ccc(Oc2ccc(F)c(F)c2)cn1` [Compound E050], the IC50 was 398 nM.

In the case of `CC(C)C(=O)Nc1ccc(Oc2cncc(F)c2)cn1` [Compound E051], the IC50 was 3980 nM.

As for `CC1(C)CC1C(=O)Nc1ccc(Oc2cncc(F)c2)cn1` (stereo not drawn) [Compound E052], the IC50 is 501 nM.

In the case of `Cc1nc(NC(=O)C2CC2(C)C)ccc1Oc1ccc(F)c(F)c1` (stereo not drawn) [Compound E054], the IC50 is 158 nM.

On to `O=C(Nc1ccc(Oc2ccc(F)c(F)c2)cn1)[C@@H]1CCCO1` [Compound E055], for which the IC50 is 6310 nM.

For `CC1(C)C(C(=O)Nc2ccc(Oc3ccc(F)nc3)cn2)C1(C)C` [Compound E056], the IC50 was 5.01 nM.

For the molecule `CC1(C)CC1C(=O)Nc1ccc(Oc2ccc(C#N)cc2)cn1` (stereo not drawn) [Compound E057], the IC50 is 1260 nM.

Take `CC1(C)C(C(=O)Nc2ccc(Oc3ccc(C#N)cc3)cn2)C1(C)C` [Compound E058]: the IC50 was 31.6 nM.

Regarding `CC1(C)CC(C(=O)Nc2ccc(Oc3ccc(F)c(F)c3)cn2)C1` [Compound E059], the IC50 is 200 nM.

Consider `CC1(C)C(C(=O)Nc2ccc(Oc3ccnc(F)c3)cn2)C1(C)C` [Compound E060], for which the IC50 is 3.16 nM.

As to `CC1(C)C(C(=O)Nc2ccc(Oc3ccc(C#N)cc3F)cn2)C1(C)C` [Compound E061], the IC50 was 20 nM.

For the molecule `CC1(C)CCC1C(=O)Nc1ccc(Oc2ccc(F)c(F)c2)cn1` (stereo not drawn) [Compound E062], the IC50 is 10 nM.

On to `CC1(C)C(C(=O)Nc2ccc(Oc3ccc(C#N)nc3)cn2)C1(C)C` [Compound E063], for which the IC50 is 1260 nM.

With `CC1(C)C(C(=O)Nc2ccc(Oc3ccnc(C#N)c3)cn2)C1(C)C` [Compound E065], the IC50 was 355 nM.

`CC1(C)C(C(=O)Nc2ccc(Oc3cccnc3)cn2)C1(C)C` [Compound E066]: the IC50 is 30.9 nM.

With `CC1(C)OCCC1C(=O)Nc1ccc(Oc2ccc(F)c(F)c2)cn1` (stereo not drawn) [Compound E068], the IC50 was 263 nM.

For the molecule `CC(C)(C#N)CC(=O)Nc1ccc(Oc2ccc(F)c(F)c2)cn1` [Compound E069], the IC50 is 1910 nM.

Consider `CC1(C)C(C(=O)Nc2ccc(N3CCC(O)C3)cn2)C1(C)C` (stereo not drawn) [Compound E070], for which the IC50 was 1050 nM.

Take `COCCOc1ccc(NC(=O)C2C(C)(C)C2(C)C)nc1` [Compound E071]: the IC50 is 1100 nM.
